# Organism: Rattus norvegicus
# Test: DrugMatrix - Regimen: Daily Repeat
# Assay type: toxicity, organism-based, Sprague-Dawley
# Set-up: regimen Daily Repeat, gender Male, age 6-8 weeks
# Conditions: in vivo, po, route oral GAVAGE, […]; for TOTAL PROTEIN / URIC ACID / ALANINE AMINOTRANSFERASE / ALBUMIN / ALKALINE PHOSPHATASE / ASPARTATE AMINOTRANSFERASE / BLOOD UREA NITROGEN / CARBON DIOXIDE / CHOLESTEROL / CREATINE PHOSPHOKINASE / CREATININE / GLUCOSE / LACTATE DEHYDROGENASE / LIPASE / TOTAL BILIRUBIN: tissue Plasma; for ABSOLUTE BASOPHIL / ABSOLUTE EOSINOPHIL / ABSOLUTE LYMPHOCYTE / ABSOLUTE MONOCYTE / ABSOLUTE SEGMENTED NEUTROPHIL / BASOPHIL / EOSINOPHIL / ERYTHROCYTE COUNT / HEMATOCRIT / HEMOGLOBIN / LEUKOCYTE COUNT / LYMPHOCYTE / MEAN CORPUSCULAR HEMOGLOBIN / MEAN CORPUSCULAR HEMOGLOBIN CONCENTRATION / MEAN CORPUSCULAR VOLUME / MONOCYTE / NEUTROPHIL / NUCLEATED RED BLOOD CELLS / PLATELET COUNT: tissue Blood
# [1] = 32 mg/kg, 120 h, dose level M2, time 5 day
# [2] = 64 mg/kg, 72 h, dose level High, time 3 day
# [3] = 64 mg/kg, 120 h, dose level High, time 5 day
# [4] = 72 h, dose 2.5 mg/Kg, dose level Low, time 3 day
# [5] = 120 h, dose 2.5 mg/Kg, dose level Low, time 5 day
structure (smiles),measurement,setting,value
CC/C(=C(\c1ccccc1)c1ccc(OCCN(C)C)cc1)c1ccccc1 [TAMOXIFEN],TOTAL PROTEIN,[1],6.4 G/DL
same,URIC ACID,[1],2.17 mg/dL
same,ABSOLUTE BASOPHIL,[2],0 CELLS/uL
same,ABSOLUTE EOSINOPHIL,[2],0 CELLS/uL
same,ABSOLUTE LYMPHOCYTE,[2],5492.33 CELLS/uL
same,ABSOLUTE MONOCYTE,[2],14 CELLS/uL
same,ABSOLUTE SEGMENTED NEUTROPHIL,[2],260.33 CELLS/uL
same,BASOPHIL,[2],0%
same,EOSINOPHIL,[2],0%
same,ERYTHROCYTE COUNT,[2],5.73 x10E6/uL
same,HEMATOCRIT,[2],35.43%
same,HEMOGLOBIN,[2],13.57 G/DL
same,LEUKOCYTE COUNT,[2],5.77 x10E3/uL
same,LYMPHOCYTE,[2],94.67%
same,MEAN CORPUSCULAR HEMOGLOBIN,[2],23.73 pg
same,MEAN CORPUSCULAR HEMOGLOBIN CONCENTRATION,[2],38.3 G/DL
same,MEAN CORPUSCULAR VOLUME,[2],62.03 fL
same,MONOCYTE,[2],0.33%
same,NEUTROPHIL,[2],5%
same,NUCLEATED RED BLOOD CELLS,[2],0 /100WBC
same,PLATELET COUNT,[2],879.67 x10E3/uL
same,ALANINE AMINOTRANSFERASE,[2],151 u/L
same,ALBUMIN,[2],3.87 G/DL
same,ALKALINE PHOSPHATASE,[2],492 u/L
same,ASPARTATE AMINOTRANSFERASE,[2],96.67 u/L
same,BLOOD UREA NITROGEN,[2],10 mg/dL
same,CARBON DIOXIDE,[2],30.33 mmol/L
same,CHOLESTEROL,[2],38.33 mg/dL
same,CREATINE PHOSPHOKINASE,[2],356.33 u/L
same,CREATININE,[2],0.11 mg/dL
same,GLUCOSE,[2],148 mg/dL
same,LACTATE DEHYDROGENASE,[2],98 u/L
same,LIPASE,[2],10.67 u/L
same,TOTAL BILIRUBIN,[2],0.1 mg/dL
same,TOTAL PROTEIN,[2],5.77 G/DL
same,URIC ACID,[2],0.43 mg/dL
same,ABSOLUTE BASOPHIL,[3],0 CELLS/uL
same,ABSOLUTE EOSINOPHIL,[3],0 CELLS/uL
same,ABSOLUTE LYMPHOCYTE,[3],6999 CELLS/uL
same,ABSOLUTE MONOCYTE,[3],72.33 CELLS/uL
same,ABSOLUTE SEGMENTED NEUTROPHIL,[3],495.33 CELLS/uL
same,BASOPHIL,[3],0%
same,EOSINOPHIL,[3],0%
same,ERYTHROCYTE COUNT,[3],6.14 x10E6/uL
same,HEMATOCRIT,[3],38.5%
same,HEMOGLOBIN,[3],14.9 G/DL
same,LEUKOCYTE COUNT,[3],7.57 x10E3/uL
same,LYMPHOCYTE,[3],92.33%
same,MEAN CORPUSCULAR HEMOGLOBIN,[3],24.27 pg
same,MEAN CORPUSCULAR HEMOGLOBIN CONCENTRATION,[3],38.7 G/DL
same,MEAN CORPUSCULAR VOLUME,[3],62.63 fL
same,MONOCYTE,[3],1%
same,NEUTROPHIL,[3],6.67%
same,NUCLEATED RED BLOOD CELLS,[3],0.33 /100WBC
same,PLATELET COUNT,[3],1000.33 x10E3/uL
same,ALANINE AMINOTRANSFERASE,[3],226.33 u/L
same,ALBUMIN,[3],3.63 G/DL
same,ALKALINE PHOSPHATASE,[3],346.67 u/L
same,ASPARTATE AMINOTRANSFERASE,[3],140 u/L
same,BLOOD UREA NITROGEN,[3],7.67 mg/dL
same,CARBON DIOXIDE,[3],30 mmol/L
same,CHOLESTEROL,[3],43.33 mg/dL
same,CREATINE PHOSPHOKINASE,[3],593 u/L
same,CREATININE,[3],0.12 mg/dL
same,GLUCOSE,[3],136.33 mg/dL
same,LACTATE DEHYDROGENASE,[3],145.33 u/L
same,LIPASE,[3],10.33 u/L
same,TOTAL BILIRUBIN,[3],0.1 mg/dL
same,TOTAL PROTEIN,[3],5.3 G/DL
same,URIC ACID,[3],0.67 mg/dL
same,ABSOLUTE BASOPHIL,[4],0 CELLS/uL
same,ABSOLUTE EOSINOPHIL,[4],0 CELLS/uL
same,ABSOLUTE LYMPHOCYTE,[4],5987.33 CELLS/uL
same,ABSOLUTE MONOCYTE,[4],0 CELLS/uL
same,ABSOLUTE SEGMENTED NEUTROPHIL,[4],346 CELLS/uL
same,BASOPHIL,[4],0%
same,EOSINOPHIL,[4],0%
same,ERYTHROCYTE COUNT,[4],5.38 x10E6/uL
same,HEMATOCRIT,[4],32.47%
same,HEMOGLOBIN,[4],12.63 G/DL
same,LEUKOCYTE COUNT,[4],6.33 x10E3/uL
same,LYMPHOCYTE,[4],94.33%
same,MEAN CORPUSCULAR HEMOGLOBIN,[4],23.5 pg
same,MEAN CORPUSCULAR HEMOGLOBIN CONCENTRATION,[4],38.9 G/DL
same,MEAN CORPUSCULAR VOLUME,[4],60.4 fL
same,MONOCYTE,[4],0%
same,NEUTROPHIL,[4],5.67%
same,NUCLEATED RED BLOOD CELLS,[4],0 /100WBC
same,PLATELET COUNT,[4],919.67 x10E3/uL
same,ALANINE AMINOTRANSFERASE,[4],63.33 u/L
same,ALBUMIN,[4],3.8 G/DL
same,ALKALINE PHOSPHATASE,[4],412.33 u/L
same,ASPARTATE AMINOTRANSFERASE,[4],76.33 u/L
same,BLOOD UREA NITROGEN,[4],11 mg/dL
same,CARBON DIOXIDE,[4],34 mmol/L
same,CHOLESTEROL,[4],44.33 mg/dL
same,CREATINE PHOSPHOKINASE,[4],193 u/L
same,CREATININE,[4],0.1 mg/dL
same,GLUCOSE,[4],160.67 mg/dL
same,LACTATE DEHYDROGENASE,[4],89 u/L
same,LIPASE,[4],10 u/L
same,TOTAL BILIRUBIN,[4],0.13 mg/dL
same,TOTAL PROTEIN,[4],5.67 G/DL
same,URIC ACID,[4],0.57 mg/dL
same,ABSOLUTE BASOPHIL,[5],0 CELLS/uL
same,ABSOLUTE EOSINOPHIL,[5],0 CELLS/uL
same,ABSOLUTE LYMPHOCYTE,[5],7101.67 CELLS/uL
same,ABSOLUTE MONOCYTE,[5],21.33 CELLS/uL
same,ABSOLUTE SEGMENTED NEUTROPHIL,[5],443.67 CELLS/uL
same,BASOPHIL,[5],0%
same,EOSINOPHIL,[5],0%
same,ERYTHROCYTE COUNT,[5],5.73 x10E6/uL
same,HEMATOCRIT,[5],35.9%
same,HEMOGLOBIN,[5],14 G/DL
same,LEUKOCYTE COUNT,[5],7.57 x10E3/uL
same,LYMPHOCYTE,[5],93.67%
same,MEAN CORPUSCULAR HEMOGLOBIN,[5],24.43 pg
same,MEAN CORPUSCULAR HEMOGLOBIN CONCENTRATION,[5],39.07 G/DL
same,MEAN CORPUSCULAR VOLUME,[5],62.63 fL
same,MONOCYTE,[5],0.33%
same,NEUTROPHIL,[5],6%
same,NUCLEATED RED BLOOD CELLS,[5],0.33 /100WBC
same,PLATELET COUNT,[5],1179.33 x10E3/uL
same,ALANINE AMINOTRANSFERASE,[5],95 u/L
same,ALBUMIN,[5],4.13 G/DL
same,ALKALINE PHOSPHATASE,[5],534.33 u/L
same,ASPARTATE AMINOTRANSFERASE,[5],94.33 u/L
same,BLOOD UREA NITROGEN,[5],11.33 mg/dL
same,CARBON DIOXIDE,[5],31 mmol/L
same,CHOLESTEROL,[5],43 mg/dL
same,CREATINE PHOSPHOKINASE,[5],303.67 u/L
same,CREATININE,[5],0.1 mg/dL
same,GLUCOSE,[5],148.33 mg/dL
same,LACTATE DEHYDROGENASE,[5],142.67 u/L
same,LIPASE,[5],10.67 u/L
same,TOTAL BILIRUBIN,[5],0.1 mg/dL
same,TOTAL PROTEIN,[5],6 G/DL
same,URIC ACID,[5],0.73 mg/dL

# Reference: ChEMBL document CHEMBL3885881, “DrugMatrix”
